According to BindingDB's records for doi:10.1016/j.bioorg.2016.07.005 (Hazara University, 2016):

Legend:
[1] = target: Acetylcholinesterase (Tetronarce californica, UniProt P04058); test: Acetylcholinesterase Assay; conditions: pH 7.7
Method: Total volume of the reaction mixture was 100 µL. It contained 60 µL Na2HPO4 buffer with concentration of 50 mM and pH 7.7. 10 µL test compound (0.5 mM well-1) was added, followed by the addition of 10 µL (0.005 unit well-1) enzyme. […] Then contents were pre-incubated for 10 min at 37 °C. The reaction was initiated by the addition of 10 µL of 0.5 mM well-1 substrate (acetylthiocholine iodide), followed by the addition of 10 µL DTNB (0.5 mM well-1). […] All experiments were carried out with their respective controls in triplicate.

[2] = target: Cholinesterase (Homo sapiens, UniProt P06276); test: Butyrylcholinesterase Assay; conditions: pH 7.7
Chain of Cholinesterase (P06276 whole entry): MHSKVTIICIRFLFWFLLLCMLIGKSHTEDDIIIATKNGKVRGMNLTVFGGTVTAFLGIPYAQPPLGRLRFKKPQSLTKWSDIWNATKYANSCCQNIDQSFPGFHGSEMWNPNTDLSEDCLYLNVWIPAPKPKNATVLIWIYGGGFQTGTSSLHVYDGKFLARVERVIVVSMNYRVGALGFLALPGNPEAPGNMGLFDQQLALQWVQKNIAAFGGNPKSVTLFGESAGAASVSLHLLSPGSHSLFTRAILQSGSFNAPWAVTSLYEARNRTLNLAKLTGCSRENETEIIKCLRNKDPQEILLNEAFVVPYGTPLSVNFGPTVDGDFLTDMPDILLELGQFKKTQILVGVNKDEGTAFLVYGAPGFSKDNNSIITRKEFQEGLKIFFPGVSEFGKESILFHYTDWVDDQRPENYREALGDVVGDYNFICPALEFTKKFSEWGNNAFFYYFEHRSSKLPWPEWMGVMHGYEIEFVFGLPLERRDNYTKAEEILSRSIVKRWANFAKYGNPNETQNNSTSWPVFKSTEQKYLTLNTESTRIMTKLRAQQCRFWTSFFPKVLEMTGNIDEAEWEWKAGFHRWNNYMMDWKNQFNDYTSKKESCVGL
Method: Total volume of the reaction mixture was 100 µL containing 60 µL, Na2HPO4 buffer, 50 mM and pH 7.7. Ten µL test compound 0.5 mM well-1 was added followedby the addition of 10 µL (0.5 unit well-1) BChE (Sigma Inc.). […] The reaction was initiated by the addition of 10 µL of 0.5 mM well-1 substrate (butyrylthiocholine chloride). Followed by the addition of 10 µL DTNB, 0.5 mM well-1. […] All experiments were carried out with their respective controls in triplicate.

Chain of Acetylcholinesterase (P04058 whole entry): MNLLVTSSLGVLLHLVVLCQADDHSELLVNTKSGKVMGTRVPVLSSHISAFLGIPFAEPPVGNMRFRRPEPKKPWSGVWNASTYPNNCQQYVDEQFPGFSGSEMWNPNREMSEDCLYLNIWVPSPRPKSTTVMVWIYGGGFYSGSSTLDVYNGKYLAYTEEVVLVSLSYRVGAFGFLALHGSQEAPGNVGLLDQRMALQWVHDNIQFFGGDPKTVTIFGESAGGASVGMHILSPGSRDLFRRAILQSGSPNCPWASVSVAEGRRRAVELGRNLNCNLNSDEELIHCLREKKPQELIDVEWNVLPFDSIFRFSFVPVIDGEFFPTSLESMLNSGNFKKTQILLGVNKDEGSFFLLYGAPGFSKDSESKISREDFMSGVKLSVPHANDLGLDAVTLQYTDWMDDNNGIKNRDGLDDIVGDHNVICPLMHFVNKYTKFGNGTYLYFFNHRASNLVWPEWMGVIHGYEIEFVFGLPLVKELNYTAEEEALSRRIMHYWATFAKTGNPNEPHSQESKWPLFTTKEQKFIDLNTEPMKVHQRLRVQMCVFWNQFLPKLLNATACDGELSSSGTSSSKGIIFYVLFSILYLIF

Row | Compound | IC50 [1] | IC50 [2]
1 | O=C(N/N=C\c1cccs1)c1ccccc1O [2-Hydroxy-N'-[(Z)-2-thienylmethylidene]benzohydrazide (23)] | 430 µM | 
2 | O=C(N/N=C\c1cccc(O)c1)c1ccccc1O [2-Hydroxy-N'-[(Z)-(3-hydroxyphenyl)methylidene]benzohydrazide (27)] | 355 µM | 
3 | O=C(N/N=C\c1ccc(O)cc1)c1ccccc1O [2-Hydroxy-N'-[(Z)-(4-hydroxyphenyl)methylidene]benzohydrazide (28)] |  | 424 µM
4 | CC(C)c1ccc(/C=N\NC(=O)c2ccccc2O)cc1 [2-Hydroxy-N'-[(Z)-(4-isopropylphenyl)methylidene]benzohydrazide (12)] | 39.8 µM | 71.8 µM
5 | O=C(N/N=C\c1cccc(C(F)(F)F)c1)c1ccccc1O [2-Hydroxy-N'-{(Z)-[3-(trifluoromethyl)phenyl]methylidene} benzohydrazide (14)] | 56.1 µM | 112 µM
6 | CSc1ccc(/C=N\NC(=O)c2ccccc2O)cc1 [2-Hydroxy-N'-{(Z)-[4-(methylsulfanyl)phenyl]methylidene} benzohydrazide (22)] | 436 µM | 
7 | O=C(N/N=C\c1ccc(C(F)(F)F)cc1)c1ccccc1O [2-Hydroxy-N'-{(Z)-[4-(trifluoromethyl)phenyl]methylidene} benzohydrazide (18)] | 48.5 µM | 213 µM
8 | O=C(N/N=C\c1c2ccccc2cc2ccccc12)c1ccccc1O [(Z)-N'-(anthracen-10-ylmethylene)-2-hydroxybenzohydrazide (10)] | 4.12 µM | 
9 | CCCCOc1ccc(/C=N\NC(=O)c2ccccc2O)cc1 [N0-[(Z)-(4-butoxyphenyl)methylidene]-2-hydroxybenzohydrazide (7)] | 15.4 µM | 41.8 µM
10 | O=C(N/N=C\c1ccco1)c1ccccc1O [N'-[(Z)-2-furylmethylidene]-2-hydroxybenzohydrazide (11)] |  | 418 µM
11 | COc1cccc(/C=N\NC(=O)c2ccccc2O)c1OC [N'-[(Z)-(2,3-dimethoxyphenyl)methylidene]-2-hydroxybenzohydrazide (15)] |  | 61.6 µM
12 | O=C(N/N=C\c1ccc(Cl)cc1Cl)c1ccccc1O [N'-[(Z)-(2,4-dichlorophenyl)methylidene]-2-hydroxybenzohydrazide (6)] | 18.1 µM | 43.2 µM
13 | COc1ccc(/C=N\NC(=O)c2ccccc2O)c(OC)c1 [N'-[(Z)-(2,4-dimethoxyphenyl)methylidene]-2-hydroxybenzohydrazide (9)] |  | 293 µM
14 | COc1cccc(OC)c1/C=N\NC(=O)c1ccccc1O [N'-[(Z)-(2,6-dimethoxyphenyl)methylidene]-2-hydroxybenzohydrazide (2)] | 461 µM | 79.5 µM
15 | O=C(N/N=C\c1cc(F)ccc1Br)c1ccccc1O [N'-[(Z)-(2-bromo-5-fluorophenyl)methylidene]-2-hydroxybenzohydrazide (21)] | 312 µM | 267 µM
16 | CCOc1ccccc1/C=N\NC(=O)c1ccccc1O [N'-[(Z)-(2-ethoxyphenyl)methylidene]-2-hydroxybenzohydrazide (20)] | 415 µM | 116 µM
17 | O=C(N/N=C\c1cc(Cl)cc(Cl)c1O)c1ccccc1O [N'-[(Z)-(3,5-dichloro-2-hydroxyphenyl)methylidene]-2-hydroxybenzohydrazide (24)] | 8.41 µM | 9.22 µM
18 | O=C(N/N=C\c1ccc(F)c(Br)c1)c1ccccc1O [N'-[(Z)-(3-bromo-4-fluorophenyl)methylidene]-2-hydroxybenzohydrazide (25)] | 311 µM | 
19 | COc1ccc(/C=N\NC(=O)c2ccccc2O)cc1Br [N'-[(Z)-(3-bromo-4-methoxyphenyl)methylidene]-2-hydroxybenzohydrazide (17)] | 19.8 µM | 38.4 µM
20 | O=C(N/N=C\c1cccc(Br)c1)c1ccccc1O [N'-[(Z)-(3-bromophenyl)methylidene]-2-hydroxybenzohydrazide (19)] | 156 µM | 121 µM
21 | O=C(N/N=C\c1ccc(Br)cc1F)c1ccccc1O [N'-[(Z)-(4-bromo-2-fluorophenyl)methylidene]-2-hydroxybenzohydrazide (26)] | 369 µM | 452 µM
22 | CCOc1ccc(/C=N\NC(=O)c2ccccc2O)cc1 [N'-[(Z)-(4-ethoxyphenyl)methylidene]-2-hydroxybenzohydrazide (8)] | 218 µM | 116 µM
23 | COc1ccc(/C=N\NC(=O)c2ccccc2O)cc1OCc1ccccc1 [N'-{(Z)-[3-(benzyloxy)-4-methoxyphenyl]methylidene}-2-hydroxybenzohydrazide (16)] |  | 86.2 µM
24 | O=C(N/N=C\c1ccc(OCc2ccccc2)cc1)c1ccccc1O [N'-{(Z)-[4-(benzyloxy)phenyl]methylidene}-2-hydroxybenzohydrazide (3)] | 8.12 µM | 37.8 µM
25 | CC(C)(C)c1ccc(/C=N\NC(=O)c2ccccc2O)cc1 [N'-{(Z)-[4-(tert-butyl)phenyl]methylidene}-2-hydroxybenzohydrazide (13)] | 92.4 µM | 6.51 µM
